# What was measured:
# [1] = target: RAC-beta serine/threonine-protein kinase (Homo sapiens) (UniProt P31751)
# [2] = target: Serine/threonine-protein kinase BRSK1 (Homo sapiens) (UniProt Q8TDC3)
# [3] = target: Calcium/calmodulin-dependent protein kinase type II subunit beta (Homo sapiens) (UniProt Q13554)
# [4] = target: Death-associated protein kinase 3 (Homo sapiens) (UniProt O43293)
# [5] = target: Epithelial discoidin domain-containing receptor 1 (Homo sapiens) (UniProt Q08345)
# [6] = target: Dual specificity tyrosine-phosphorylation-regulated kinase 1B (Homo sapiens) (UniProt Q9Y463)
# [7] = target: Dual specificity tyrosine-phosphorylation-regulated kinase 2 (Homo sapiens) (UniProt Q92630)
# [8] = tested on: Epidermal growth factor receptor (Homo sapiens), P00533 [G719C]
# [9] = target: Eukaryotic translation initiation factor 2-alpha kinase 1 (Homo sapiens) (UniProt Q9BQI3)
# [10] = target: Ephrin type-A receptor 2 (Homo sapiens) (UniProt P29317)
# [11] = target: Ephrin type-A receptor 8 (Homo sapiens) (UniProt P29322)
# [12] = target: Receptor tyrosine-protein kinase erbB-3 (Homo sapiens) (UniProt P21860)
# [13] = target: Fibroblast growth factor receptor 4 (Homo sapiens) (UniProt P22455)
# [14] = tested on: Receptor-type tyrosine-protein kinase FLT3 (Homo sapiens), P36888 [UNDEFINED MUTATION]
# [15] = target: Homeodomain-interacting protein kinase 2 (Homo sapiens) (UniProt Q9H2X6)
# [16] = tested on: Mast/stem cell growth factor receptor Kit (Homo sapiens), P10721 [L576P]
# [17] = tested on: Mast/stem cell growth factor receptor Kit (Homo sapiens), P10721 [V559D,V654A]
# [18] = target: Serine/threonine-protein kinase LATS1 (Homo sapiens) (UniProt O95835)
# [19] = target: Tyrosine-protein kinase Lck (Homo sapiens) (UniProt P06239)
# [20] = target: Tyrosine-protein kinase Lyn (Homo sapiens, UniProt P07948)
# [21] = target: MAP kinase-activated protein kinase 2 (Homo sapiens) (UniProt P49137)
# [22] = target: Dual specificity mitogen-activated protein kinase kinase 1 (Homo sapiens) (UniProt Q02750)
# [23] = target: Myosin light chain kinase (Homo sapiens) (UniProt Q32MK0)
# [24] = target: Mitogen-activated protein kinase kinase kinase 11 (Homo sapiens) (UniProt Q16584)
# [25] = target: Serine/threonine-protein kinase Nek2 (Homo sapiens) (UniProt P51955)
# [26] = target: Platelet-derived growth factor receptor alpha (Homo sapiens) (UniProt P16234)
# [27] = target: Calcium-dependent protein kinase 1 (Plasmodium falciparum) (UniProt P62344)
# [28] = target: cGMP-dependent protein kinase 1 (Homo sapiens) (UniProt Q13976)
# [29] = target: cGMP-dependent protein kinase 2 (Homo sapiens) (UniProt Q13237)
# [30] = target: Serine/threonine-protein kinase PRP4 homolog (Homo sapiens) (UniProt Q13523)
# [31] = target: Protein-tyrosine kinase 2-beta (Homo sapiens, UniProt Q14289)
# [32] = target: Ribosomal protein S6 kinase alpha-3 (Homo sapiens) (UniProt P51812)
# [33] = target: Serine/threonine-protein kinase SIK2 (Homo sapiens) (UniProt Q9H0K1)
# [34] = target: SRSF protein kinase 1 (Homo sapiens) (UniProt Q96SB4)
# [35] = target: SRSF protein kinase 2 (Homo sapiens) (UniProt P78362)
# [36] = target: Serine/threonine-protein kinase 35 (Homo sapiens) (UniProt Q8TDR2)
# [37] = target: Serine/threonine-protein kinase ULK1 (Homo sapiens) (UniProt O75385)
# [38] = target: Vascular endothelial growth factor receptor 2 (Homo sapiens) (UniProt P35968)
# [39] = target: Serine/threonine-protein kinase WNK2 (Homo sapiens) (UniProt Q9Y3S1)
# [40] = target: Mitogen-activated protein kinase kinase kinase 20 (Homo sapiens) (UniProt Q9NYL2)
# [41] = target: 5-hydroxytryptamine receptor 1B (Homo sapiens) (UniProt P28222); details: Compound concentration 10.0 uM
# [42] = target: 5-hydroxytryptamine receptor 3A (Homo sapiens) (UniProt P46098); details: Compound concentration 10.0 uM
# [43] = target: Delta-type opioid receptor (Homo sapiens) (UniProt P41143); details: Compound concentration 10.0 uM
# [44] = target: Alpha-2B adrenergic receptor (Homo sapiens) (UniProt P18089); details: Compound concentration 10.0 uM
# [45] = target: Beta-3 adrenergic receptor (Homo sapiens) (UniProt P13945); details: Compound concentration 10.0 uM
# [46] = Compound concentration 100.0 nM
# [47] = Compound concentration 1000.0 nM
# Chain of Serine/threonine-protein kinase BRSK1 (Homo sapiens) (Q8TDC3 whole entry): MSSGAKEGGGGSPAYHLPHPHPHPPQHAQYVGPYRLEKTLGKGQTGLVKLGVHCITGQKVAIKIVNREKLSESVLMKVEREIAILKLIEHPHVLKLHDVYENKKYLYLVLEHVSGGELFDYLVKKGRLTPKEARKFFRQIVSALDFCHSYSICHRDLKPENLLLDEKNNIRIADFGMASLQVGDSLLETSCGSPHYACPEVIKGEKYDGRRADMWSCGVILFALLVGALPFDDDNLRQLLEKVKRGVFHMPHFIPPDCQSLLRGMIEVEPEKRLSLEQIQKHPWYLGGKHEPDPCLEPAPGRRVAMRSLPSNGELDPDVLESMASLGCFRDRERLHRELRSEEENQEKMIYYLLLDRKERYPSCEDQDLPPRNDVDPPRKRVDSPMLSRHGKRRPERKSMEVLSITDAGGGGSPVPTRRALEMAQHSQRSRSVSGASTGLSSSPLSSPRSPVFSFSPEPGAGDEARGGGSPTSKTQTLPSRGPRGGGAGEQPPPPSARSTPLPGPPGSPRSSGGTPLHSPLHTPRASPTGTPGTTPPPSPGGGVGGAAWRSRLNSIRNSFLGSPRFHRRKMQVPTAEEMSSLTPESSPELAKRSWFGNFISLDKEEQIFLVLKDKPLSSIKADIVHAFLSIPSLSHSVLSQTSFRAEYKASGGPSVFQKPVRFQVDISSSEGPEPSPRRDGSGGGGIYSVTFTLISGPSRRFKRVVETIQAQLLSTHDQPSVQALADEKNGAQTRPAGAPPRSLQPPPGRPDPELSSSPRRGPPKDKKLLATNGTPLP
# Chain of Ephrin type-A receptor 8 (Homo sapiens) (P29322 whole entry): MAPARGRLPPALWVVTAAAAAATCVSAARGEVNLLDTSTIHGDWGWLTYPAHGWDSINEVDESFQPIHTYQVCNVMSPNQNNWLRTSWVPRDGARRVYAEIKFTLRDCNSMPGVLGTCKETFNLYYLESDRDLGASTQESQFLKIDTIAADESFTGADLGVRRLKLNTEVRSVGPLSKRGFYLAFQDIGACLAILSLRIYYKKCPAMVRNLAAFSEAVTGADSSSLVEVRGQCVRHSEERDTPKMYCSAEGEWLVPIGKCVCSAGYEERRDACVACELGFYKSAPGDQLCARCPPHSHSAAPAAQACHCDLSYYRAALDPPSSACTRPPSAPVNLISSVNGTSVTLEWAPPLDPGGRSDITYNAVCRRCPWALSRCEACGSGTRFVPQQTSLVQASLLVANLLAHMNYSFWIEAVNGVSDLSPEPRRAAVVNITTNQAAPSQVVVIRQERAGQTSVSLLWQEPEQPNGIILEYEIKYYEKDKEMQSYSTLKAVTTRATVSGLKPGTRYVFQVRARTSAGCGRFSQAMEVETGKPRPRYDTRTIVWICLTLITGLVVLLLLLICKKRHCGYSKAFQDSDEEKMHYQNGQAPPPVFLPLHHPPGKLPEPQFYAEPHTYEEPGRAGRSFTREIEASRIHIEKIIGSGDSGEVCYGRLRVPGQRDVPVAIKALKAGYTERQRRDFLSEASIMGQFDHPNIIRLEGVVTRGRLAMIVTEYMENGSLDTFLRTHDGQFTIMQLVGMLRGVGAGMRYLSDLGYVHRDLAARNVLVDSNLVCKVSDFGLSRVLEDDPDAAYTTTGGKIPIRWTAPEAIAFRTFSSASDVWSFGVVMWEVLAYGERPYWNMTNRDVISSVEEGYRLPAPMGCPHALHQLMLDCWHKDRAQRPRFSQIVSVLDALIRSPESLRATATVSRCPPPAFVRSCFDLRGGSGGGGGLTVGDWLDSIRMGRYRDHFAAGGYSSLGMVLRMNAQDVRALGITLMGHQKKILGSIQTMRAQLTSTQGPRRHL
# Chain of Mitogen-activated protein kinase kinase kinase 11 (Homo sapiens) (Q16584 whole entry, looked up): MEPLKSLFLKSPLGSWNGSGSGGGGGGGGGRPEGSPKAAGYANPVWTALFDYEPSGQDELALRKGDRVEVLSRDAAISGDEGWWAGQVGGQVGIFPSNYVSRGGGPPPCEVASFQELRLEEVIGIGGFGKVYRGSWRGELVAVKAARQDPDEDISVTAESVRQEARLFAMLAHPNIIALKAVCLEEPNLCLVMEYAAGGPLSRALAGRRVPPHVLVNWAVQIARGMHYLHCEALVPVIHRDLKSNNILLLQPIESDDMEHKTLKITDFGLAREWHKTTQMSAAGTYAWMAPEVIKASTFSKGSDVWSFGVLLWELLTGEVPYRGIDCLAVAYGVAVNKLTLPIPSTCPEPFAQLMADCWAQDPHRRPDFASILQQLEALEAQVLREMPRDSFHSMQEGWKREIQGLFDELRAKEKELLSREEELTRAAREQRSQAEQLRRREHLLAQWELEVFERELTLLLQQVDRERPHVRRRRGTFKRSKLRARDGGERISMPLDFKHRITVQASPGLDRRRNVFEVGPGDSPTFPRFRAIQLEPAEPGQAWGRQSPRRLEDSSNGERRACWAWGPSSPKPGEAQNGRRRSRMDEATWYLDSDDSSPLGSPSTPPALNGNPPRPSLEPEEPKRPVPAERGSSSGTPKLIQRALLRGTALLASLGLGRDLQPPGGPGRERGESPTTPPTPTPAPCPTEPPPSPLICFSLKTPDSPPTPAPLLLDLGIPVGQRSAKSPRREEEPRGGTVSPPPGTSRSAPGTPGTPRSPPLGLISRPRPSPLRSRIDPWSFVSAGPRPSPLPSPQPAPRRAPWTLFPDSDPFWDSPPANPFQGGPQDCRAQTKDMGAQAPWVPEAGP
# Chain of 5-hydroxytryptamine receptor 1B (Homo sapiens) (P28222 whole entry): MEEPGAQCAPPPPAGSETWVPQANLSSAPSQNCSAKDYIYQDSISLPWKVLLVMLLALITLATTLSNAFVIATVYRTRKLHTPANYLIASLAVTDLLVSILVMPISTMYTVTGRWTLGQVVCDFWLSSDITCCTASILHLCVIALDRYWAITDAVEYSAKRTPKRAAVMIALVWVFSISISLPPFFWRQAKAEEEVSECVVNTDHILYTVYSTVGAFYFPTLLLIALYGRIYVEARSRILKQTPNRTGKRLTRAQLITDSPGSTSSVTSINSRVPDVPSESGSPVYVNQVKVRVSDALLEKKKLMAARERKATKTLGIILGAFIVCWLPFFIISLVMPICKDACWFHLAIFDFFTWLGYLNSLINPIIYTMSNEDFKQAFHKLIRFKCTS
# Chain of Dual specificity tyrosine-phosphorylation-regulated kinase 2 (Homo sapiens) (Q92630 whole entry): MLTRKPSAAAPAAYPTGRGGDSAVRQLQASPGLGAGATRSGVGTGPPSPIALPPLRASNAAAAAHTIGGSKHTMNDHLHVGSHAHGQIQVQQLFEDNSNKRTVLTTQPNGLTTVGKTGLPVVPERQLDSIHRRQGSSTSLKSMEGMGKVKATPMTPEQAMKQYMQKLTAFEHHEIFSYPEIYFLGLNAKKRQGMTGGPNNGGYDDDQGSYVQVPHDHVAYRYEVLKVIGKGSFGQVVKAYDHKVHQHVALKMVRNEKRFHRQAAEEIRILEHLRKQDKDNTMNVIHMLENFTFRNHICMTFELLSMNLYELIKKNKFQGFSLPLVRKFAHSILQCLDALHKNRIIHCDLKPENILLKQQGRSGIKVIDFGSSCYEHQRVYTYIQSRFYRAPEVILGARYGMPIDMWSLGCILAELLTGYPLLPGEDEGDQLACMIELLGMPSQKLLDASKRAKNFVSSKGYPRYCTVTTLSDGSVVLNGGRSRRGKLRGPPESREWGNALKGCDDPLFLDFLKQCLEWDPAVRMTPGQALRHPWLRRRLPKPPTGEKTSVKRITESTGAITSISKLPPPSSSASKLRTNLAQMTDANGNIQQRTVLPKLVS
# Chain of Ephrin type-A receptor 2 (Homo sapiens) (P29317 whole entry): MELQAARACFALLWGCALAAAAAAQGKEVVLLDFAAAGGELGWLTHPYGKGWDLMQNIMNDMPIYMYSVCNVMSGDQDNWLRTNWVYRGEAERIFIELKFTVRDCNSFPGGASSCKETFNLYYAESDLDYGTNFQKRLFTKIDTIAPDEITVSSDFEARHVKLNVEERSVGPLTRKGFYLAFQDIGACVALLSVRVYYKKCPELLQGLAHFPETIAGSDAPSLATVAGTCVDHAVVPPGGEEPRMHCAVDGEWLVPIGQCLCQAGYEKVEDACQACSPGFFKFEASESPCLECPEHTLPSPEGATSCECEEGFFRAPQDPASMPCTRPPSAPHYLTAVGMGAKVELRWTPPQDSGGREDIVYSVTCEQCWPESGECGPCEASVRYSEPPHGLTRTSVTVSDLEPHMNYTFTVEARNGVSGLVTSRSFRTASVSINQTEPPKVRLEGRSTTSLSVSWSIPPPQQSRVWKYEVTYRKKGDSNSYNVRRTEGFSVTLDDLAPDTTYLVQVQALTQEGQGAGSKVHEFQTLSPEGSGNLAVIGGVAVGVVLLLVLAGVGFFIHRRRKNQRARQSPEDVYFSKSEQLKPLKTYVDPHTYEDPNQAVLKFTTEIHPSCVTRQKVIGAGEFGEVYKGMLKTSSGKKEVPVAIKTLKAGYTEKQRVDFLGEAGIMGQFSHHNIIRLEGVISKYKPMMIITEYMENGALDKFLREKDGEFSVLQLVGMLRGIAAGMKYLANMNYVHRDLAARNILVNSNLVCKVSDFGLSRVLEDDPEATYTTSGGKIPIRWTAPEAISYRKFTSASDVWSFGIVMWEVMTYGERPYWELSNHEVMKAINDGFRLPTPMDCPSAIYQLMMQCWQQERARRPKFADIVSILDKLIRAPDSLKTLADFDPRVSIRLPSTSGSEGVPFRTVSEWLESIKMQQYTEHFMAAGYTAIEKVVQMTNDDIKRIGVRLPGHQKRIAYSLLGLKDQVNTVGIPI
# Chain of Alpha-2B adrenergic receptor (Homo sapiens) (P18089 whole entry): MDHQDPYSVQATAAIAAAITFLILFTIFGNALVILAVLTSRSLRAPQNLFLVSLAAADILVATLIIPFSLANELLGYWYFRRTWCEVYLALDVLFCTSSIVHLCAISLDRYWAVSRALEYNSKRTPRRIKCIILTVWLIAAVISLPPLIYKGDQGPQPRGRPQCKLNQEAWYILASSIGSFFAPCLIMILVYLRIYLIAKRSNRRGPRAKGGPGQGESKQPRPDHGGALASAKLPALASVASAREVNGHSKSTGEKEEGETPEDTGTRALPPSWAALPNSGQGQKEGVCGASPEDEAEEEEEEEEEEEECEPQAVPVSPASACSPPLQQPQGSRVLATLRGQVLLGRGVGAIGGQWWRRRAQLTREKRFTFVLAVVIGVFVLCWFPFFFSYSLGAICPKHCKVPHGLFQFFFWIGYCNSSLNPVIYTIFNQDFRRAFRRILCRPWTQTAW
structure (smiles),measurement,setting,value
CNC(=O)c1ccc(Nc2ncc(C(F)(F)F)c(NCc3nccnc3N(C)S(C)(=O)=O)n2)cc1 [DEFACTINIB],residual activity,[1]; [46],77%
same,residual activity,[2]; [46],100%
same,residual activity,[3]; [46],86%
same,residual activity,[4]; [46],75%
same,residual activity,[5]; [46],100%
same,residual activity,[6]; [46],79%
same,residual activity,[7]; [46],76%
same,residual activity,[8]; [46],94%
same,residual activity,[9]; [46],85%
same,residual activity,[10]; [46],86%
same,residual activity,[11]; [46],87%
same,residual activity,[12]; [46],93%
same,residual activity,[13]; [46],95%
same,residual activity,[14]; [46],9%
same,residual activity,[15]; [46],37%
same,residual activity,[16]; [46],86%
same,residual activity,[17]; [46],100%
same,residual activity,[18]; [46],96%
same,residual activity,[19]; [46],87%
same,residual activity,[20]; [46],85%
same,residual activity,[21]; [46],100%
same,residual activity,[22]; [46],100%
same,residual activity,[23]; [46],100%
same,residual activity,[24]; [46],35%
same,residual activity,[25]; [46],75%
same,residual activity,[26]; [46],77%
same,residual activity,[27]; [46],85%
same,residual activity,[28]; [46],100%
same,residual activity,[29]; [46],100%
same,residual activity,[30]; [46],69%
same,residual activity,[31]; [46],8.3%
same,residual activity,[32]; [46],82%
same,residual activity,[33]; [46],100%
same,residual activity,[34]; [46],51%
same,residual activity,[35]; [46],100%
same,residual activity,[36]; [46],100%
same,residual activity,[37]; [46],47%
same,residual activity,[38]; [46],73%
same,residual activity,[39]; [46],94%
same,residual activity,[40]; [46],100%
same,inhibition,[41],12.5%
same,inhibition,[42],6.5%
same,inhibition,[43],-0.28%
same,inhibition,[44],5.76%
same,inhibition,[45],4.63%
CN(c1ccnc(CNc2nc(Nc3ccc4c(c3)CC(=O)N4)ncc2C(F)(F)F)n1)S(C)(=O)=O [PF-00911705],residual activity,[1]; [47],82%
same,residual activity,[2]; [47],43%
same,residual activity,[3]; [47],86%
same,residual activity,[4]; [47],33%
same,residual activity,[5]; [47],80%
same,residual activity,[6]; [47],31%
same,residual activity,[7]; [47],37%
same,residual activity,[8]; [47],86%
same,residual activity,[9]; [47],87%
same,residual activity,[10]; [47],80%
same,residual activity,[11]; [47],100%
same,residual activity,[12]; [47],78%
same,residual activity,[13]; [47],83%
same,residual activity,[14]; [47],0%
same,residual activity,[15]; [47],54%
same,residual activity,[16]; [47],66%
same,residual activity,[17]; [47],67%
same,residual activity,[18]; [47],51%
same,residual activity,[19]; [47],46%
same,residual activity,[20]; [47],80%
same,residual activity,[21]; [47],100%
same,residual activity,[22]; [47],85%
same,residual activity,[23]; [47],100%
same,residual activity,[24]; [47],32%
same,residual activity,[25]; [47],83%
same,residual activity,[26]; [47],58%
same,residual activity,[27]; [47],84%
same,residual activity,[28]; [47],100%
same,residual activity,[29]; [47],68%
same,residual activity,[30]; [47],23%
same,residual activity,[31]; [47],59%
same,residual activity,[32]; [47],25%
same,residual activity,[33]; [47],41%
same,residual activity,[34]; [47],17%
same,residual activity,[35]; [47],40%
same,residual activity,[36]; [47],86%
same,residual activity,[37]; [47],1.2%
same,residual activity,[38]; [47],56%
same,residual activity,[39]; [47],22%
same,residual activity,[40]; [47],100%
same,inhibition,[41],5.78%
same,inhibition,[42],1.24%
same,inhibition,[43],-6.88%
same,inhibition,[44],-4.21%
same,inhibition,[45],1.64%
